# Measured values published in patent publication US20070015828A1 (Wyeth, priority 2005, published 2007).
# Tests used:
# CACO-2 cells = assay: Permeability assessment, HTS-24 CACO-2 model; format: in vitro ADME
# Description: The rate of drug transport through the CACO-2 cells was determined as the Apparent Permeability Coefficient according to the following formula:
# Papp=AQ X Rv cm.s- AT 60.A.Co
# ΔT=Change in time (minutes)
# Co=Initial concn in the donor chamber (mM.cm^−3)
# A=Surface area of membrane (cm^2)
# 60=Conversion factor to give cm.s^−1
# Rv=volume of receiver compartment.
# Transepithelial electrical resistance (TER) was calculated from resistance measurements according to the following formula: TER=(R[cells+filter+medium])−(R[filter+medium])×cell area.
# Apparent permeability rates were interpreted as follows. […] Apparent permeability values less than metoprolol or propranolol are considered to be ≦90% fa (moderate permeability classification). Apparent permeability values of <10 nms^−1 are considered to be ≦50% fa (low permeability classification). TER values of <120 ohms cm^2 indicate low monolayer integrity over the assay period.
# A compound/metoprolol or propranolol ratio of <1 indicates a moderate to low permeability compound.
# [1] = target: T1, Benzodiazepine, peripheral (h) (Homo sapiens, UniProt P30536); assay: Receptor binding assay: Benzodiazepine peripheral; details: Test Compound @ 10 1 M
# T1 construct: Novascreen (assay provider)
# T1 sequence (P30536 whole entry): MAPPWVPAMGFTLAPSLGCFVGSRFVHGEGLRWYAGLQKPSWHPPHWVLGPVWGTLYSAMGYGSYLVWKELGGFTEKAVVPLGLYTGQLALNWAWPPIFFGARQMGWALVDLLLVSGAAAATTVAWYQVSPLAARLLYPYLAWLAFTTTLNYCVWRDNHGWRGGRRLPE
# Dopamine, D2s (hr) = Dopamine, D2s (hr) (Homo sapiens, UniProt P14416); assay: Receptor binding assay: Dopamine D2s; details: Test Compound @ 10 1 M
# Sequence of Dopamine, D2s (hr) (P14416 1-414 isoform P14416-2): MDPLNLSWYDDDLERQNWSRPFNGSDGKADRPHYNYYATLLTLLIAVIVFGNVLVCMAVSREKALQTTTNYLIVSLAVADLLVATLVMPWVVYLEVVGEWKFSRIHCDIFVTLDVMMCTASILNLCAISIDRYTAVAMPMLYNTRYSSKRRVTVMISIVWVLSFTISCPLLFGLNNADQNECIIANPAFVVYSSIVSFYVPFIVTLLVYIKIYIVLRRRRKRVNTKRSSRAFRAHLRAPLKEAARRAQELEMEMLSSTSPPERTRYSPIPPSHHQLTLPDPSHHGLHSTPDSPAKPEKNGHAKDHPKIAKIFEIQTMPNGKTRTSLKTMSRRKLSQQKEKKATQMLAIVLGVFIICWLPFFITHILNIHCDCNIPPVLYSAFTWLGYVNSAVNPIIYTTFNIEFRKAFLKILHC
# Dopamine, D4.4 (hr) = Dopamine, D4.4 (hr) (Homo sapiens, UniProt P21917); assay: Receptor binding assay: Dopamine D4.4; details: Test Compound @ 10 1 M
# Sequence of Dopamine, D4.4 (hr) (P21917 whole entry): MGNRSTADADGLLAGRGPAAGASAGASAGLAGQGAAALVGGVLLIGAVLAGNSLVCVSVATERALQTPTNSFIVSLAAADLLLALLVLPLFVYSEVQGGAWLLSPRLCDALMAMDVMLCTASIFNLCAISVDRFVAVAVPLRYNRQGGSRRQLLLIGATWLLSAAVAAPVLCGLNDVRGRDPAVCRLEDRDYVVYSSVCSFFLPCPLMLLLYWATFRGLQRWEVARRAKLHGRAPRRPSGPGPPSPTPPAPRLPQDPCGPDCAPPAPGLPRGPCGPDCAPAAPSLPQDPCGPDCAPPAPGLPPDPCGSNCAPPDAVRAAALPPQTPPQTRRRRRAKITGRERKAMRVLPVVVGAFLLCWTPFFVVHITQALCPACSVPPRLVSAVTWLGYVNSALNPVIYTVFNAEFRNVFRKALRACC
# GABA A, Agonist site = assay: Receptor binding assay: GABA A agonist site; details: Test Compound @ 10 1 M
# GABA A, Benzo, central = assay: Receptor binding assay: GABA A benzo central; details: Test Compound @ 10 1 M
# Glutamate, AMPA Site = assay: Receptor binding assay: Glutamate AMPA site; details: Test Compound @ 10 1 M
# Glutamate, Kainate Site = assay: Receptor binding assay: Glutamate Kainate site; details: Test Compound @ 10 1 M
# [2] = test system: Glutamate, NMDA agonist Site; assay: Receptor binding assay: Glutamate NMDA agonist site; details: Test Compound @ 10 1 M
# [3] = test system: Glycine, Strychnine-sensitive; assay: Receptor binding assay: Glycine strychnine-sensitive; details: Test Compound @ 10 1 M
# Muscarinic, M2 (hr) = target: T2, Muscarinic, M2 (hr) (Homo sapiens, UniProt P08172); assay: Receptor binding assay: Muscarinic M2; details: Test Compound @ 10 1 M
# T2 construct: Novascreen (contract assay)
# T2 sequence (P08172 whole entry): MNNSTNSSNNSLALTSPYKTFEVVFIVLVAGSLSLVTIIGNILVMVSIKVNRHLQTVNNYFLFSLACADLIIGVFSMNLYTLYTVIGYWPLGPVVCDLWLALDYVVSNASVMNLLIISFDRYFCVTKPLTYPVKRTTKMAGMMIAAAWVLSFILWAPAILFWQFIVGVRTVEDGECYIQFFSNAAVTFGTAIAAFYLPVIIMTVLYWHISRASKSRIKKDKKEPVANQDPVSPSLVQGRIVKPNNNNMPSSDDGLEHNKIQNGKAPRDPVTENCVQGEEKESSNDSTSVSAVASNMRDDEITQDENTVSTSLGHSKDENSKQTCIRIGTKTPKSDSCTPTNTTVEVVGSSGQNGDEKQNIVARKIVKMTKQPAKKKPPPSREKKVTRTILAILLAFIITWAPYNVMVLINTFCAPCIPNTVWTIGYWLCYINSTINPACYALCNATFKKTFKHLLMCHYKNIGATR
# Muscarinic, M3 (hr) = target: T3, Muscarinic, M3 (hr) (Homo sapiens, UniProt P20309); assay: Receptor binding assay: Muscarinic M3; details: Test Compound @ 10 1 M
# T3 construct: Novascreen (contract assay)
# T3 sequence (P20309 whole entry): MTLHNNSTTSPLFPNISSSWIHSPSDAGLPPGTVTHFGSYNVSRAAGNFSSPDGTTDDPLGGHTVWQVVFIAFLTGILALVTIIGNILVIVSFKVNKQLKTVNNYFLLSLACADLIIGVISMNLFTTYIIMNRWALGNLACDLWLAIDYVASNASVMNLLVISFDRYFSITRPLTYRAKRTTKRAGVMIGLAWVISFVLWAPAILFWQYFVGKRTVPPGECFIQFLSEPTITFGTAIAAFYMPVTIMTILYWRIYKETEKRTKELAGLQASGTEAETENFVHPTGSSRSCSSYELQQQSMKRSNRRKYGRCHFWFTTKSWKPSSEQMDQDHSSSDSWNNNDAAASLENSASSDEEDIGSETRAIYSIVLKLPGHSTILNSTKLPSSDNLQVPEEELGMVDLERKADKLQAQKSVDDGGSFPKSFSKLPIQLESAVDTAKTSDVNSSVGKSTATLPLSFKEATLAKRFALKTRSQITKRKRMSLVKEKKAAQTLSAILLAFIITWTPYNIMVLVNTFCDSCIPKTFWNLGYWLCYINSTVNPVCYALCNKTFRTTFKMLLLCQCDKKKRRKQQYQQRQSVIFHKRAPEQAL
# [4] = test system: Nicotinic (a-bungarotoxin insens); format: binding; details: Test Compound @ 10 1 M
# [5] = test system: Serotonin, 5HT1, non-selective; assay: Receptor binding assay: Serotonin 5HT1 non-selective; details: Test Compound @ 10 1 M
# Serotonin, 5HT2C = assay: Receptor binding assay: Serotonin 5HT2C; details: Test Compound @ 10 1 M
# Serotonin, 5HT4 = assay: Receptor binding assay: Serotonin 5HT4; details: Test Compound @ 10 1 M
# Sigma 2 = assay: Receptor binding assay: Sigma 2; details: Test Compound @ 10 1 M
# [6] = In vitro metabolism in hepatic microsomes, rat; format: in vitro ADME; details: Sprague-Dawley rats, read-out: t1/2 in hepatic microsomes
# Description: In vitro metabolism of 1-[2-dimethylamino-1-(4-phenol)ethyl]-cis-1,4-cyclohexandiol was conducted in the hepatic microsomes of Sprague-Dawley rats, male dogs, male monkeys and mixed male and female humans to characterize metabolic stability and identification of metabolites. 1-[2-dimethylamino-1-(4-phenol)ethyl]-cis-1,4-cyclohexandiol was stable (t1/2>60 minutes) in hepatic microsomes indicating Phase I and II metabolism was minimal in all species.
# cortical 5-HT = assay: Microdialysis study, rat dorsal lateral frontal cortex; format: in vivo; details: male Sprague-Dawley rats, 30 mg/kg, combined with 5-HT1A antagonist WAY-100635 (0.3 mg/kg, s.c.) given 20 min before
# Description: 1-[2-dimethylamino-1-(4-phenol)ethyl]-cis-1,4-cyclohexandiol was evaluated in a microdialysis study conducted in male Sprague-Dawley rats [M T Taber et al, Differential effects of coadministration of fluoxetine and WAY-100635 on serotonergic neurotransmission in vivo: sensitivity to sequence of injections, Synapse, 2000 October; 38(1):17-26.] This technique can capture the neurochemical effects of compounds in the brains of freely-moving rodents. The effects of 1-[2-dimethylamino-1-(4-phenol)ethyl]-cis-1,4-cyclohexandiol were studied in the rat dorsal lateral frontal cortex, a brain region thought to be involved in etiology and/or treatment of depression. To see whether any effects on serotonin could be observed, the compound (30 mg/kg, sc) was tested in combination with the selective 5-HT1A antagonist, N-[2-[4-(2-methoxyphenyl)-1-piperazinyl] ethyl]-N-(2-pyridinyl)cyclohexanecarboxamide (WAY-100635). […]
# • 24 hr post-operative recovery • 3 hr equilibration after probe insertion • 1 hr 40 min baseline • 5-HT1A antagonist N-[2-[4-(2-methoxyphenyl)-1-piperazinyl]ethyl]-N-(2-pyridinyl)cyclohexanecarboxamide [WAY-100635] (0.3 mg/kg, s.c.) given 20 min before 1-[2-dimethylamino-1-(4-phenol)ethyl]-cis-1,4-cyclohexandiol (30 mg/kg, […]) Sample Collection: Samples collected for 3 hr 2 min post-injections Analysis: 5-HT levels quantified by HPLC-ECD
# [7] = test system: spinal nerve ligation model of neuropathic pain, tactile allodynia; assay: Spinal nerve ligation model of neuropathic pain, tactile allodynia; format: in vivo; details: rat, up to 100 mg/kg
# Description: 1-[2-dimethylamino-1-(4-phenol)ethyl]-cis-1,4-cyclohexandiol was evaluated in two in-vivo animal models for pain, including a Visceral Pain model and a Neuropathic Pain model.
# Surgical procedures were performed under 4% isoflurane/O2 anesthesia, delivered via nose cone and maintained at 2.5% for the duration of the surgery. After induction of anesthesia, the incision site was shaved and prepared in a sterile manner. Spinal nerve ligation (SNL) surgery was performed as previously described [Kim, S. H. and Chung, J. M., An experimental model for peripheral neuropathy produced by segmental spinal nerve ligation in the rat, Pain, 50 (1992) 355-63] with the exception that nerve injury was produced by tight ligation of the left L5 spinal nerve. Briefly, a midline incision was made and the L5 transverse process was removed and the nerve was tightly ligated with 6-0 silk suture material and the wound was closed in layers with 4-0 vicryl suture and the skin closed with wound clips.
compound,measurement,setting,value
"CN(C)CC(c1ccc(O)cc1)C1(O)CCC(O)CC1 (stereo not drawn) [1-[2-dimethylamino-1-(4-phenol)ethyl]-cis-1,4-cyclohexandiol]",efflux activity,"CACO-2 cells; CACO-2, from B:A ratio",no efflux activity
same,permeability classification,"CACO-2 cells; CACO-2, versus propranolol reference",high permeability
same,inhibition at 10 µM,[1],1.65%
same,inhibition at 10 µM,"Dopamine, D2s (hr)",6.17%
same,inhibition at 10 µM,"Dopamine, D4.4 (hr)",3.39%
same,Receptor Binding % Inhibition,"GABA A, Agonist site",−16.06%
same,Receptor Binding % Inhibition,"GABA A, Benzo, central",0.20%
same,Receptor Binding % Inhibition,"Glutamate, AMPA Site",2.50%
same,Receptor Binding % Inhibition,"Glutamate, Kainate Site",−0.51%
same,Receptor Binding % Inhibition,[2],−2.99%
same,Receptor Binding % Inhibition,[3],−2.38%
same,inhibition at 10 µM,"Muscarinic, M2 (hr)",12%
same,inhibition at 10 µM,"Muscarinic, M3 (hr)",0.11%
same,Receptor Binding % Inhibition,[4],−1.07%
same,Receptor Binding % Inhibition,[5],5.09%
same,Receptor Binding % Inhibition,"Serotonin, 5HT2C",10.05%
same,Receptor Binding % Inhibition,"Serotonin, 5HT4",3.98%
same,Receptor Binding % Inhibition,Sigma 2,1.00%
same,half-life,[6],> 1 h
same,cortical 5-HT levels,cortical 5-HT,Robust elevations
same,reversal of tactile allodynia,[7],not found to reverse
